Blank lines part the entries; values can stand above or below the compound they belong to. Numbered stars: 1 amine (or outer) side, 2 acyl side, 3 side chain; on linkers, the order of the positions; unused ones are H or OH. Square brackets hold non-standard residues; d marks the D form. Peptide text beside a SMILES is read from it. * marks the point of attachment. X1 = CC(C)[C@H](N[*:1])C(=O)C(F)(F)C(=O)[*:2]; N(Indan-2-yl)Gly = O=C(O)CNC1Cc2ccccc2C1; Cbz = O=C(OCc1ccccc1)*
Columns and labels:
Neutrophil elastase = biological target: T1, Neutrophil elastase (Homo sapiens, UniProt P08246); assay: Inhibitory activity against human leukocyte elastase (HLE) at pH 7.5
T1 sequence (P08246 whole entry): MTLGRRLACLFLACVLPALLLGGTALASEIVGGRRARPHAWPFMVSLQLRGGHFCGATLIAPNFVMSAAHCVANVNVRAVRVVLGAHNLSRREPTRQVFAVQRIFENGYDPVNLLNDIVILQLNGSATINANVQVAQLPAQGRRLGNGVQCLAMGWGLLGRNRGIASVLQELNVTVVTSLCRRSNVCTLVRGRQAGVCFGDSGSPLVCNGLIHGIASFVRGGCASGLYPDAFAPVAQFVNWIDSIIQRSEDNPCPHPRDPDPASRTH

Cricetinae gen. sp. [1] = assay: Inhibition of Elastase-induced pulmonary Hemorrhage(EPH) in Hamsters at a dose of 10 ug/mL; format: functional, Cricetulus griseus
Cricetinae gen. sp. [2] = assay: Inhibition of Elastase-induced pulmonary Hemorrhage(EPH) in Hamsters at a dose of 3 ug/mL; format: functional, Cricetulus griseus
Cricetinae gen. sp. [3] = assay: Inhibition of Elastase-induced pulmonary Hemorrhage(EPH) in Hamsters at a dose of 20 ug/mL; format: functional, Cricetulus griseus

- IC50 (Neutrophil elastase): > 5 µM
Structure (SMILES): CCOC(=O)C(F)(F)C(=O)[C@H](Cc1ccccc1)NC(=O)CN(C(=O)[C@@H](NC(=O)c1ccc(C(=O)NS(=O)(=O)c2ccc(Cl)cc2)cc1)C(C)C)C1Cc2ccccc2C1
- Max reduction (Cricetinae gen. sp. [1]): 12.2%

Structure (SMILES): CC(C)C(NC(=O)CN(C(=O)[C@@H](NC(=O)c1ccc(C(=O)NS(=O)(=O)c2ccc(Cl)cc2)cc1)C(C)C)C1Cc2ccccc2C1)C(=O)C(F)(F)F (stereo partly specified)
- Max reduction (Cricetinae gen. sp. [2]): 58.1%
- Max reduction (Cricetinae gen. sp. [1]): 90.5%

Structure (SMILES): CCOC(=O)CNC(=O)CNC(=O)C(F)(F)C(=O)[C@@H](NC(=O)CN(C(=O)[C@@H](NC(=O)OCc1ccccc1)C(C)C)C1Cc2ccccc2C1)C(C)C (Cbz-V[N(Indan-2-yl)Gly][X1]GG-OEt)
- Max reduction (Cricetinae gen. sp. [3]): 33.3%

Structure (SMILES): CCOC(=O)C(F)(F)C(=O)[C@H](CC(C)C)NC(=O)CN(C(=O)[C@@H](NC(=O)c1ccc(C(=O)NS(=O)(=O)c2ccc(Cl)cc2)cc1)C(C)C)C1Cc2ccccc2C1
- Max reduction (Cricetinae gen. sp. [3]): 55.2%

Structure (SMILES): COC(=O)[C@H](CCCCNC(=O)C(F)(F)C(=O)[C@@H](NC(=O)CN(C(=O)[C@@H](NC(=O)OCc1ccccc1)C(C)C)C1Cc2ccccc2C1)C(C)C)NC(C)=O
- Max reduction (Cricetinae gen. sp. [3]): 7.6%

Structure (SMILES): CCOC(=O)C(F)(F)C(=O)[C@@H](NC(=O)CN(C(=O)[C@@H](NC(=O)OCc1ccccc1)C(C)C)C1Cc2ccccc2C1)C(C)C
- Max reduction (Cricetinae gen. sp. [3]): 51.9%

Structure (SMILES): CCOC(=O)C(F)(F)C(=O)[C@@H](NC(=O)CN(C(=O)[C@@H](NC(=O)c1ccc(C(=O)NS(=O)(=O)c2ccc(Cl)cc2)cc1)C(C)C)C1Cc2ccccc2C1)C(C)C
- Max reduction (Cricetinae gen. sp. [1]): 94.6%

- IC50 (Neutrophil elastase): > 5 µM
Structure (SMILES): CC(C)[C@H](NC(=O)OCc1ccccc1)C(=O)N(CC(=O)N[C@H](C(=O)C(F)(F)C(=O)O)C(C)C)C1Cc2ccccc2C1
- Max reduction (Cricetinae gen. sp. [3]): 55.8%

Source: ChEMBL document CHEMBL1125561, “Inhibition of human leukocyte elastase by N-substituted peptides containing alpha,alpha-difluorostatone residues at P1” (J Med Chem, 1992)
